Literature values, collected in patent US20080302375A1 (priority 2003, published 2008).

Conditions: upon the smoking of a cigarette

CN1CCCC1c1cccnc1 (stereo not shown) [nicotine, 3-(1-methyl-2-pyrrolidinyl)-pyridine]
time for nicotine to reach the brain after inhalation: ten
